Assay results reported in patent US6017958A, “Method of treating malignant tumors with thyroxine analogues having no significant hormonal activity” (Octamer, Inc., priority 1997, dated 2000).

Key:
MDA-MB-231 cells = test: Chromosome analysis by in situ hybridization; assay type: cell-based, human; details: 1 μM
Experimental: The MDA-MB-231 cell line was obtained from ATCC (Rockville, Md., USA) and cells were cultured in T-75 flasks at 37° C. in Minimum Essential Medium-alpha, supplemented with 10% FCS. In controls, not receiving DIME, 0.1 μg/ml colcemid was added to cultures for 4 hrs prior to the collection of metaphase-blocked cells and preparation of cell spreads. […] Cells (10^7) were isolated from T-75 trypsinization for 5 min with 0.025% trypsin, and sedimented by centrifugation, resuspended and kept in 10 ml of 75 mM KC1 at 37° C. for 10 min, resedimented, and fixed in 10 ml methanol-acetic acid, with four successive changes of methanol-acetic acid. An aliquot of the final cell suspension (100 μl) was dropped on ethanol-cleaned slides and air-dried.
Human chromosome-specific probes were produced by ONCOR (Gaithersburg, Md., USA). Hybridization was accomplished by a modification of the procedure described by Pinkel et al., 1986, "Cytogentic Analysis Using Quantitative High-Sensitivity Fluorescence Hybridization," Proc. Natl. Acad. Sci. U.S.A. 83:2934-2938. The slide-mounted cells were treated with pepsin (20 μg/ml in 0.01 N HCl) at 37° C. for 10 min and then dehydrated in a 70%, 85% and 100% ethanol series, then DNA was denatured by immersion in 70% formamide, followed by 2X standard saline citrate (IX SSC is […], 0.015 M sodium citrate, pH 7.0) for 2 min. at 70° C., and dehydrated in ethanol as described above. The hybridization mixture in a 10 μl total volume consisted of 50% formamide, 2X SSC, 10% dextran sulfate, 0.5 μg herring sperm DNA, and 1-5 μg of proteinase K-treated human placental DNA. Both herring sperm DNA and human placental DNA were previously sonicated to 200-600 bp fragments, and -40 ng of digoxigeninylated probe DNA (denatured at 70° C. for 5 min) added, and incubated at 37° C. for 1 hr. This mixture was placed on slides containing the fixed cells, sealed under a coverslip, and incubated at 37° C. for 2 to 3 days. […] The slides were viewed in a Zeiss fluorescence microscope equipped with a multiple band pass filter (Chroma Technology, Brattleboro, Vt., USA) to determine the number of FISH signals in each nucleus.

Rana pipiens tadpoles = details: tadpole metamorphosis; cited from earlier work
[1] = 0.25 to 1.0 g/kg daily per os; cited from earlier work
MDA-MB-231 xenografts = test: MDA-MB-231 xenograft growth in nude mice; assay type: in vivo, human tumor in nude mice; details: 250 mg/kg gavage, 5 days/week; control 979.0 ± 154; p = 0.01; in mm³ (unit assumed)
Experimental: MDA-MB-231 (human mammary cancer) cells were obtained from American Type Culture Collection (Rockville, Md.) and maintained in the recommended growth media. Twenty nude mice were each inoculated subcutaneously with MDA-MB-231 cells (10^6 cells/100 μL). To one group of ten mice, DIME was administered by gavage (250 mg/kg, 10 mL/kg in corn oil) once per day, 5 days per week, for a total of 32 days. The other (control) group of ten mice was given administered vehicle only according to the same dosing schedule. Tumors were measured twice weekly using a Vernier caliper, and the mean tumor volume was determined at each time point. Comparisons between groups were made using an unpaired, two-tailed t-test and the results were analyzed using analysis of variance.
Tumorigenicity of E-ras 20 Cells in athymic nude mice was assayed as described previously. Bauer et al., 1996, "Modification of growth related enzymatic pathways and apparent loss of tumorigenicity of a ras-transformed bovine endothelial cell line by treatment with 5-iodo-6-amino-1,2-benzopyrone (INH2 BP)" Intl. J. Oncol. 8:239-252. The in vivo antitumorigenic action of DIME was assayed on athymic mice inoculated with 10^6 MDA-MB-231 cells, as in the tumorgenicity assay. […]

COC(=O)c1cc(I)c(Oc2ccc(OC)cc2)c(I)c1 [Compound 1, Methyl 3,5-diiodo-4-(4'-methoxyphenoxy)benzoate]
effect on chromosomes (in situ hybridization) (MDA-MB-231 cells; 18 hrs): no detectable effect
chromosome breakage (MDA-MB-231 cells; 5 days): No evidence for chromosome breakage
chromosome-19 signals (MDA-MB-231 cells; 5 days, some cells): about 40 chromosome-19 signals
chromosomes per cell (MDA-MB-231 cells; 5 days, some cells): over 100 chromosomes
metamorphosis / cell differentiating activity (Rana pipiens tadpoles): no significant metabolic or cell differentiating activity
noticeable toxicity [1]: no noticeable toxicity
Tumor Volume Day 28 ± SEM (MDA-MB-231 xenografts): 430 ± 85.6
